According to patent US6552014B2, “Methods of inhibiting platelet activation with selective serotonin reuptake inhibitors” (HeartDrug Research, L.L.C., priority 1999, dated 2003):

Legend:
Format in all cases: cell-based, human
[1] = test system: Vitronectin receptor; assay: Flow cytometry of platelet antigen expression, platelet rich plasma; conditions: for Vitronectin (mean) log fluorescence intensity / Vitronectin (peak) log fluorescence intensity: PRP
Excerpt: For ex vivo assessment of the SSRIs effect on a PAM, a level of a PAM can be assessed by flow cytometry by first obtaining a sample that comprises platelets and then contacting the sample with a platelet activation agonist, such as phorbol myristate acetate (PMA), ADP (adenosine diphosphate), thrombin, collagen, and/or TRAP (thrombin receptor activating peptide), under conditions suitable for activation of platelets in the sample. The sample is in contact with the agonist preferably for a period of time effective to maximally activate the platelets. […] Then the formation of the complex in the sample is determined (detected or measured). […] The blood-ACD mixture was centrifuged at 1000 r.p.m. for 10 minutes at room temperature. […] The PRP was then centrifuged at 3000 r.p.m. for 10 minutes. […] All cells were then divided into ten plastic capped tubes. Nine portions of washed platelets were incubated with 5 μfluorescein isothiocyanate (FITC)-conjugated antibodies in the dark at +4 °C for 30 minutes, and one part remained unstained and served as a negative control. […] The instrument was calibrated daily with fluorescence beads (CaliBRITE; Becton Dickinson) and measured FITC-conjugated fluorescence intensity. All parameters were obtained using four decade logarithmic amplification. The data was collected and stored in list mode, and then analyzed using CELLQuest® (version 1.2.2) software. Procedures are described in detail in (Gurbel, P. […] Serebruany, V. […] The levels of various PAMs were assess from samples of human volunteers.

[2] = test system: platelets; assay: Platelet aggregation in platelet rich plasma (ADP or collagen); conditions: for platelet aggregation in PRP (FIGS. 5 and 6), in words: post-coronary angioplasty patient, activated with ADP or collagen
Method: Trisodium citrate (3.8%) and whole blood is immediately mixed in a 1:9 ratio, and then centrifuged at 1200 g for 2.5 minutes, to obtain platelet-rich plasma (PRP), which is kept at room temperature for use within 1 hour for platelet aggregation studies. Platelet count is determined in each PRP sample with a Coulter Counter ZM (Coulter Co., Hialeah, Fla.). Platelet numbers are adjusted to 3.50×10^8/ml for aggregation with homologous platelet-poor plasma. PRP and whole blood aggregation tests are performed simultaneously. Whole blood is diluted 1.1 with the 0.5 ml PBS, and then swirled gently to mix . The cuvette with the stirring bar is placed in the incubation well and allowed to warm to 37° C. for 5 minutes. Then the sample are transferred to the assay well. An electrode is placed in the sample cuvette. Platelet aggregation is stimulated with 5 μM ADP, 1 μg/ml collagen, and 0.75 mM arachidonic acid. All agonists are obtained from Chronolog Corporation (Hawertown, Pa.). Platelet aggregation studies are performed using a Chrono-Log Whole Blood Lumi-Aggregometer (model 560 -Ca). Platelet aggregability are expressed as the percentage of light transmittance change from baseline using platelet-poor plasma as a reference at the end of recording time for plasma samples, or as a change in electrical impedance for whole blood samples. Aggregation curves are recorded for 4 minutes and analyzed according to internationally established standards using Aggrolinkg® software.

[3] = test system: platelets; assay: PFA-100 closure time, collagen/ADP cartridge; conditions: whole blood from a healthy volunteer, increasing concentrations
Excerpt: A Platelet-Function Analyzer referred to as PFA-100® (Dade Behring, Deerfield Ill.) was used. The PFA-100® is a high shear-inducing analyzer that simulates primary hemostasis after injury to a small vessel under flow conditions. The PFA-100® system measures the time required for a patient's blood sample to form a“platelet plug” in the first phase of blood clot formation. That time interval, which normally ranges from one to three minutes, is called “closure time.” The device provides a constant negative pressure that aspirates whole blood which comes into contact with the collagen coated membrane and then passes through the aperture. The time required to obtain occlusion of the aperture is digitally recorded.
The PFA-100® system permits detection of platelet dysfunction during primary hemostasis, the first phase of hemostasis or coagulation. The system consists of a microprocessor-controlled instrument and disposable test cartridges that measure how well a patient's platelets adhere and aggregate to form a platelet plug.
An in vitro system for the detection of platelet dysfunction, PFA-100™, has been developed. It provides a quantitative measure of platelet function in anticoagulated whole blood. The system comprises a microprocessor-controlled instrument and a disposable test cartridge containing a biologically active membrane. […]

[4] = post-angioplasty patient on aspirin, sertraline 44.7 ng/ml
[5] = post-angioplasty patient on aspirin, sertraline 85.3 ng/ml
[6] = healthy volunteers, desmethylsertraline 31.1 ng/ml
[7] = healthy volunteers, desmethylsertraline 64.2 ng/ml
[8] = healthy volunteers, desmethylsertraline 143 ng/ml
[9] = post-angioplasty patient on aspirin, desmethylsertraline 31.1 ng/ml
[10] = post-angioplasty patient on aspirin, desmethylsertraline 64.2 ng/ml
[11] = post-angioplasty patient on aspirin, desmethylsertraline 143 ng/ml

Which results are given for `CN[C@H]1CC[C@@H](c2ccc(Cl)c(Cl)c2)c2ccccc21` [sertraline]?
Vitronectin (mean) log fluorescence intensity ([1]; healthy volunteers, sertraline 18.1 ng/ml): 810; Vitronectin (mean) log fluorescence intensity ([1]; healthy volunteers, sertraline 44.7 ng/ml): 510; Vitronectin (mean) log fluorescence intensity ([1]; healthy volunteers, sertraline 85.3 ng/ml): 667; Vitronectin (mean) log fluorescence intensity ([1]; post-angioplasty patient on aspirin, sertraline 18.1 ng/ml): 405; Vitronectin (mean) log fluorescence intensity [1, 4]: 344; Vitronectin (peak) log fluorescence intensity [1, 4]: 393; Vitronectin (mean) log fluorescence intensity [1, 5]: 529; Vitronectin (peak) log fluorescence intensity [1, 5]: 585; surface expression of vitronectin receptor, in words ([1]; plasma concentration 85.3 ng/ml, equivalent to 200 mg/daily): diminished surface expression; percent of platelet aggregation (FIGS. 2 and 3), in words ([2]; PRP, healthy volunteer, induced with ADP or collagen, sertraline 18.1, 44.7 or 85.3 ng/ml): decreases with increasing amounts of sertraline; platelet aggregation in PRP (FIGS. 5 and 6), in words ([2]; PRP): decrease in platelet aggregation; ADP-, and collagen-induced platelet aggregation in plasma (in vitro), in words ([2]; healthy controls and patients with coronary artery disease, including those on aspirin): Dose-dependent inhibition; closure time (time for a platelet plug to form) (FIG. 11), in words [3]: decrease in the time

With `N[C@H]1CC[C@@H](c2ccc(Cl)c(Cl)c2)c2ccccc21` [Desmethyl sertraline, N-desmethylsertraline] as the compound, how does the “Vitronectin (mean) log fluorescence intensity” value [1, 6] read?
The value was 677.

What about the “Vitronectin (peak) log fluorescence intensity” value [1, 6] of the same compound?
The value was 620.

And the “Vitronectin (mean) log fluorescence intensity” value [1, 7]?
The value was 623.

And the “Vitronectin (peak) log fluorescence intensity” value [1, 7]?
The value was 508.

What about the “Vitronectin (mean) log fluorescence intensity” value [1, 8] of the same compound?
Its value is 732.

What about the “Vitronectin (peak) log fluorescence intensity” value [1, 8] of the same compound?
The value was 670.

And the “Vitronectin (mean) log fluorescence intensity” value [1, 9]?
Its value is 504.

And the “Vitronectin (peak) log fluorescence intensity” value [1, 9]?
Its value is 560.

And the “Vitronectin (mean) log fluorescence intensity” value [1, 10]?
The value was 380.

What about the “Vitronectin (peak) log fluorescence intensity” value [1, 10] of the same compound?
Its value is 425.

What about the “Vitronectin (mean) log fluorescence intensity” value [1, 11] of the same compound?
Its value is 482.

And the “Vitronectin (peak) log fluorescence intensity” value [1, 11]?
The value was 544.

What about the “platelet aggregation in PRP (FIGS. 5 and 6), in words” value ([2]; PRP) of the same compound?
The value was “decrease in platelet aggregation”.

What about the “closure time (time for a platelet plug to form) (FIG. 11), in words” value [3] of the same compound?
Its value is “decrease in the time”.
